Consider 27 compounds from ChEMBL document CHEMBL5352385, “Marine natural products and their synthetic analogs as promising antibiofilm agents for antibiotics discovery and development” (Eur J Med Chem, 2022).

In assay [1] the test system is Staphylococcus aureus. As to the kind of experiment: Antibiofilm activity against Staphylococcus aureus ATCC 6538 at 100 ug/ml incubated for 24 hrs by crystal violet staining based microplate reader method relative to control. The class given is functional. The settings on record: dose 100 µg/ml.
The test system of a further assay is Marinobacter nauticus. Put plainly: Antibiofilm activity against Marinobacter hydrocarbonoclasticus at 31.25 ug/ml incubated for 24 hrs by crystal violet staining based analysis relative to control. The class given is functional. As to conditions: dose 31.25 µg/ml.
In assay [2] the test system is Streptococcus mutans. Put plainly: Antibiofilm activity against Streptococcus mutans UA159 assessed as inhibition of biofilm formation. The class given is functional, organism-based.
For assay [3], the system named is Staphylococcus aureus. Put plainly: Antibiofilm activity against methicillin-resistant Staphylococcus aureus ATCC 6538 at 100 ug/ml incubated for 24 hrs by crystal violet staining based microplate reader method relative to control. As to conditions: dose 100 µg/ml. The class given is functional.
A further assay has as its system Micrococcus luteus. As to the kind of experiment: Antibiofilm activity against Micrococcus luteus at 31.25 ug/ml incubated for 48 hrs by crystal violet staining based analysis relative to control. The class given is functional. As to conditions: dose 31.25 µg/ml.
Assay [4] relates to Pseudooceanicola batsensis. As to the kind of experiment: Antibiofilm activity against Pseudooceanicola-batsensis at 31.25 ug/ml incubated for 48 hrs by crystal violet staining based analysis relative to control. The class given is functional. As to conditions: dose 31.25 µg/ml.
Assay [5] concerns Staphylococcus aureus. As to the kind of experiment: Antibiofilm activity against Staphylococcus aureus ATCC 6538 assessed as reduction in biofilm formation at 50 ug/ml measured after 24 hrs by crystal violet staining based analysis relative to control. The class given is functional. Also noted: scale not given: the % may be the effect or the level left. As to conditions: dose 50 µg/ml.

Assay [6] concerns Staphylococcus aureus. Put plainly: Antibiofilm activity against Staphylococcus aureus ATCC 25923 after 24 hrs by crystal violet staining based assay. The settings on record: ATCC 25923, 24 h. The class given is functional, organism-based.
The test system of assay [7] is Staphylococcus aureus. As to the kind of experiment: Antibiofilm activity against Staphylococcus aureus ATCC 6538 after 24 hrs by crystal violet staining based assay. The class given is functional, organism-based. The settings on record: ATCC 6538, 24 h.
The subject of assay [8] is Pseudomonas aeruginosa. Put plainly: Antibiofilm activity against Pseudomonas aeruginosa ATCC 15442 after 24 hrs by crystal violet staining based assay. The class given is functional, organism-based. The settings on record: ATCC 15442, 24 h.
Assay [9] deals with Staphylococcus aureus. Put plainly: Antibiofilm activity against methicillin-resistant Staphylococcus aureus CH 10850 at 100 ug/ml relative to control. The class given is functional. The settings on record: dose 100 µg/ml.
In another assay the test system is Candida albicans. As to the kind of experiment: Antibiofilm activity against Candida albicans assessed as reduction in biofilm formation at 200 ug/ml measured after 48 hrs by crystal violet staining based analysis relative to control. The class given is functional. Set-up: scale not given: the % may be the effect or the level left. The settings on record: dose 200 µg/ml.

Assay [10] has as its system Staphylococcus epidermidis. As to the kind of experiment: Antibiofilm activity against Staphylococcus epidermidis RP62A. The class given is functional.
The subject of assay [11] is Streptococcus mutans. As to the kind of experiment: Antibiofilm activity against clinical isolate Streptococcus mutans 2.M7/4 assessed as inhibition of biofilm formation at 31.0 ug/ml relative to control. The class given is functional. Also noted: scale not given: the % may be the effect or the level left. As to conditions: dose 31 µg/ml.
Assay [12] concerns Streptococcus mutans. Put plainly: Antibiofilm activity against Streptococcus mutans UA159 assessed as inhibition of biofilm formation at 31.0 ug/ml relative to control. The settings on record: dose 31 µg/ml. Also noted: scale not given: the % may be the effect or the level left. The class given is functional.
The nature of assay [13]: Inhibition of quorum sensing system in Pseudomonas aeruginosa PA01 transfected with lasB-gfp.
Assay [14] in a line: Inhibition of quorum sensing system in Pseudomonas aeruginosa PA01 transfected with […].
Assay [15] has as its system Pseudomonas aeruginosa. As to the kind of experiment: Antibiofilm activity against Pseudomonas aeruginosa PA01 at 128 ug/ml relative to control. The class given is functional. As to conditions: dose 128 µg/ml.

Where only a bound is given, the exact number is not on record here.

For the compound `CC(C)=CCC/C(C)=C/[C@@H]1CC(C)=C[C@]2(C=C(CO)[C@H]3C[C@@H](O)C(C)=C[C@H]3O2)O1`, the Activity with Staphylococcus aureus [1] is reported as over 95%.

In the assay with Marinobacter nauticus, `C=C1CCC(Cl)C(C)(C)C1C[C@@]12OC(C)(C)[C@H](Cl)C[C@]1(Cl)C(=O)c1c(cc(O)c(C)c1O)C2=O` (some centres undefined) returned an Activity of 48.2%.

`Cc1ccc(S(=O)(=O)n2cc3c4c2C(=O)C(NCCc2ccc5c(c2)COC5)=CC4=NCC3)cc1`: in the assay on Streptococcus mutans [2], the IC50 is 0.4 µM.

As to `CC(C)=CCC/C(C)=C\C[C@@]12OC(C)(C)[C@H](Cl)C[C@]1(Cl)C(=O)c1c(cc(O)c(C)c1O)C2=O`, the Activity with Marinobacter nauticus is reported as 28%.

For the compound `CC(=O)O[C@@H]1C[C@@H]2C(CO)=C[C@]3(C=C(C)C[C@@H](/C=C(\C)CCC=C(C)C)O3)O[C@@H]2C=C1C`, the Activity with Staphylococcus aureus [3] is given as 50%.

In the assay on Staphylococcus aureus [1], `CC(C)=CCC/C(C)=C/[C@@H]1CC(C)=C[C@]2(C=C(CO)[C@H]3C[C@H](O)C(C)=C[C@H]3O2)O1` returned an Activity of over 95%.

Turning to `C=C(C)C(O)CC/C(C)=C/C[C@@]12OC(C)(C)[C@H](Cl)C[C@]1(Cl)C(=O)c1c(O)cc(O)cc1C2=O` (some centres undefined), the Activity in the assay on Micrococcus luteus was 97%; in assay [4] it was 13.4%; in the assay with Marinobacter nauticus it was 56.9%.

In the assay with Staphylococcus aureus [1], `CC(C)=CCC/C(C)=C/[C@@H]1CC(C)=C[C@]2(C=C(CO)[C@H]3CC(=O)C(C)=C[C@H]3O2)O1` displayed an Activity of over 75%.

Consider `COc1cc(-c2ccccn2)nc2cnsc12`, for which the Activity in the assay with Staphylococcus aureus [5] is reported as over 50%.

With `COCCn1cc(-c2nc(-c3cn(C)c4ncccc34)cs2)c2cc(Br)ccc21`, the IC50 in the assay with Staphylococcus aureus [6] amounted to 2.03 µM; in the assay with Staphylococcus aureus [7], 23.9 µM; in the assay with Pseudomonas aeruginosa [8], 9.7 µM.

Turning to `COc1ccc(CNC2=CC3=NCCc4cn(S(=O)(=O)c5ccc(C)cc5)c(c43)C2=O)cc1OC`, in the assay on Streptococcus mutans [2], the IC50 came to 2.6 µM.

Turning to `CC(=O)OC1OC2OC(=O)[C@H](C)C34OOC([C@@]5(C)CCCC(C)(C)C5)(CC[C@@H]1C23)O4` (some centres undefined), the Activity in the assay on Staphylococcus aureus [9] is on record as 99%.

For `C/C=C1/C(=O)/C(=C(/O)C(C)CCCCCC)C(=O)N1C` (centres undefined) [PENICILLENOL B1], in the assay with Candida albicans, the Activity is 80%.

In the case of `C=C(C)C(=O)CC/C(C)=C\C[C@@]12OC(C)(C)[C@H](Cl)C=C1C(=O)c1c(O)cc(O)cc1C2=O`, the results for the Activity with Micrococcus luteus and in the assay with Marinobacter nauticus were 87.3% and 43.4%, respectively.

Consider `COc1cc(-c2ccccn2)nc(C#N)c1SC`, for which, in the assay with Staphylococcus aureus [5], the Activity is over 50%.

On to `Cc1ccc(S(=O)(=O)n2cc3c4c2C(=O)C(NCc2ccc(Cl)cc2)=CC4=NCC3)cc1`, for which the IC50 in the assay with Streptococcus mutans [2] was found to be 2.5 µM.

Take `C=C(C)C(=O)CC/C(C)=C/C[C@@]12OC(C)(C)[C@H](Cl)C[C@]1(Cl)C(=O)c1c(O)cc(O)cc1C2=O`: the Activity was found to be 87.3% in the assay with Micrococcus luteus and 43.4% in the assay with Marinobacter nauticus.

Turning to `CCCCC/C=C/C(=O)CCCCCCCC(=O)O`, the MBIC in assay [10] was over 128 µg/mL.

Take `CC(C)(C)OC(=O)NCCn1cc(-c2nc(-c3c[nH]c4ncccc34)cs2)c2ccccc21`: the results for the 50% inhibitory concentration (IC50) in the assay on Staphylococcus aureus [6] and with Staphylococcus aureus [7] were 8.4 µM and 11.3 µM, respectively.

In turn, `C/C(=C/C[C@@]12OC(C)(C)[C@H](Cl)C[C@]1(Cl)C(=O)c1c(O)cc(O)cc1C2=O)CC/C=C(\C)CO` registered an Activity in the assay with Marinobacter nauticus of 60.2%.

For the compound `CC(C)=CCC/C(C)=C\C[C@@]12OC(C)(C)[C@H](Cl)C=C1C(=O)c1c(cc(O)c(C)c1O)C2=O`, in the assay with Marinobacter nauticus, the Activity is 23.4%.

Take `CCCCCCCCC[C@H](CC(=O)NCCCCN)N1CC(=O)N[C@@H](Cc2ccccc2)C1=O`: the Activity in the assay with Streptococcus mutans [11] was found to be 34.8%; in the assay with Streptococcus mutans [12], 90%.

In the case of `COc1cc(-c2ccccn2)nc(/C=N/O)c1[S+](C)[O-]` (centres undefined), in the assay on Staphylococcus aureus [5], the Activity is given as over 80%.

Turning to `O=C(NCCSSCCNC(=O)/C(Cc1cc(Br)c(O)c(-c2cc(C/C(=N\O)C(=O)NCCSSCCNC(=O)/C(Cc3ccc(O)c(Br)c3)=N/O)cc(Br)c2O)c1)=N\O)/C(Cc1ccc(O)c(Br)c1)=N\O`, the figures for the IC50 in [13] and in assay [14] were 8.53 µM and 8.7 µM, respectively.

As to `O=C1Nc2cc(Br)ccc2[C@@]1(c1c[nH]c2ccccc12)C1CNc2ccccc21` (some centres undefined), the Activity with Pseudomonas aeruginosa [15] is listed as 41.76%.

Take `COCCn1cc(-c2nc(-c3cn(C)c4ncccc34)cs2)c2cc(F)ccc21`: the IC50 was determined as 0.4 µM in the assay with Staphylococcus aureus [6] and 51.6 µM with Staphylococcus aureus [7].

Consider `Cn1cc(-c2csc(-c3cn(CCN)c4ccc(F)cc34)n2)c2cccnc21`, for which the IC50 with Staphylococcus aureus [6] worked out at 1.27 µM; in the assay with Staphylococcus aureus [7], 13.2 µM; in the assay on Pseudomonas aeruginosa [8], 9.9 µM.
